From patent US20060069132A1, “Azolecarboxamide herbicides” (priority 2004, published 2006)

What was measured:
giant foxtail = experiment: Test B pre-/postemergence herbicide test; assay type: in vivo, Setaria faberi
How it was run: (§1)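 Test chemicals in a non-phytotoxic solvent mixture with surfactant were applied preemergence to seeded species and postemergence to plants 2-18 cm tall (1- to 4-leaf stage); rice and barnyardgrass were also tested in a flooded paddy at the 2-leaf stage. Visual rating versus controls after 13-15 days in greenhouse, scale 0 (no effect) to 100 (complete control).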

Surinam grass = experiment: Test B pre-/postemergence herbicide test; assay type: in vivo, Urochloa decumbens
How it was run: as §1

large crabgrass = experiment: Test B pre-/postemergence herbicide test; assay type: in vivo, Digitaria sanguinalis
How it was run: as §1

cocklebur = experiment: Test B pre-/postemergence herbicide test; assay type: in vivo, Xanthium strumarium
How it was run: (§2)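 Pre: seeds sown, then sprayed. Post: 1–4-leaf plants (2–18 cm) sprayed at the same time. Paddy: flooded, treated at 2-leaf stage. Formulation: non-phytotoxic solvent with surfactant. Greenhouse 13–15 days; visual 0–100 score relative to controls.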

lambsquarters = experiment: Test B pre-/postemergence herbicide test; assay type: in vivo, Chenopodium album
How it was run: as §1

[1] = system: small flower umbrella sedge; experiment: Test B flooded paddy test; assay type: in vivo, Cyperus difformis; details: 1000 g ai/ha, visual rating, scale 0 to 100 (0 no effect, 100 complete control), 13 to 15 days
How it was run: (§3)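 Read-out: visual comparison with controls, scored 0 to 100, where 100 means complete control and 0 no effect. Formulated chemicals were applied postemergence to plants 2–18 cm tall (1- to 4-leaf), or to flooded-paddy plants at the 2-leaf stage, then held 13 to 15 days under glass.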

blackgrass = experiment: Test B postemergence herbicide test; assay type: in vivo, Alopecurus myosuroides; details: scale 0 (no effect) to 100 (complete control); for Blackgrass plant response rating: 125 g ai/ha; for Plant response rating, Blackgrass: 500 g ai/ha, visual rating after 13 to 15 days
How it was run: as §3

corn = experiment: Test B pre-/postemergence herbicide test; assay type: in vivo, Zea mays
How it was run: as §1

ducksalad = experiment: Test B flooded paddy test; assay type: in vivo, Heteranthera limosa; details: 1000 g ai/ha, visual rating, scale 0 to 100 (0 no effect, 100 complete control), 13 to 15 days
How it was run: as §3

barnyardgrass = experiment: Test B pre-/postemergence herbicide test; assay type: in vivo, Echinochloa crus-galli
How it was run: as §2

morningglory = experiment: Test B pre-/postemergence herbicide test; assay type: in vivo, Ipomoea coccinea
How it was run: as §2

wild oat = experiment: Test B postemergence herbicide test; assay type: in vivo, Avena fatua; details: scale 0 (no effect) to 100 (complete control); for Oat, Wild plant response rating: 125 g ai/ha; for Plant response rating, Oat, Wild: 500 g ai/ha, visual rating after 13 to 15 days
How it was run: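 Each value is a visual 0–100 response rating taken against controls 13 to 15 days after treatment in the greenhouse. Plants received formulated chemical postemergence at the 1- to 4-leaf stage or, in flooded paddy, at the 2-leaf stage.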

velvetleaf = experiment: Test B pre-/postemergence herbicide test; assay type: in vivo, Abutilon theophrasti
How it was run: as §1

rice = experiment: Test B flooded paddy test; assay type: in vivo, Oryza sativa; details: 1000 g ai/ha, visual rating, scale 0 to 100 (0 no effect, 100 complete control), 13 to 15 days
How it was run: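 Paddy species grown to the 2-leaf stage under flooding; blackgrass sprayed postemergence at 2–18 cm (1- to 4-leaf stage). Plants kept in a greenhouse for 13 to 15 days, then visually rated against controls on 0 (no effect) to 100 (complete control).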

pigweed = experiment: Test B pre-/postemergence herbicide test; assay type: in vivo, Amaranthus retroflexus
How it was run: as §1

[2] = Postemergence, 125 g ai/ha, scale 0 (no effect) to 100 (complete control)
[3] = Postemergence, 500 g ai/ha, visual rating after 13 to 15 days, scale 0 (no effect) to 100 (complete control)
[4] = Preemergence, 500 g ai/ha, scale 0 to 100
[5] = preemergence, 125 g ai/ha, 0 to 100 scale, 0 is no effect, 100 is complete control
[6] = postemergence, 125 g ai/ha, visual rating, scale 0 (no effect) to 100 (complete control)

SMILES: CCNC(=O)c1cccc(NC(=O)c2cc(C(C)(C)C)nn2CCF)c1 [Compound 35]
- Foxtail, Giant plant response rating (giant foxtail; [2]): 20
- Plant response rating, Foxtail, Giant (giant foxtail; [3]): 20
- Foxtail, Giant plant response rating (giant foxtail; [4]): 100
- Plant response rating, Foxtail, Giant (giant foxtail; [5]): 80
- Plant response rating, Surinam Grass (Surinam grass; [3]): 40
- Surinam Grass plant response rating (Surinam grass; [4]): 80
- Plant response rating, Surinam Grass (Surinam grass; [5]): 40
- Crabgrass, Large plant response rating (large crabgrass; [2]): 20
- Plant response rating, Crabgrass, Large (large crabgrass; [3]): 20
- Crabgrass, Large plant response rating (large crabgrass; [4]): 90
- Cocklebur plant response rating (cocklebur; [2]): 50
- Plant response rating, Cocklebur (cocklebur; [3]): 100
- Cocklebur plant response rating (cocklebur; [4]): 30
- Lambsquarters plant response rating (lambsquarters; [2]): 80
- Plant response rating, Lambsquarters (lambsquarters; [3]): 90
- Lambsquarters plant response rating (lambsquarters; [4]): 100
- Plant response rating, Lambsquarters (lambsquarters; [5]): 90
- Sedge, Umbrella plant response rating [1]: 90
- Blackgrass plant response rating (blackgrass; Postemergence): 20
- Plant response rating, Blackgrass (blackgrass; Postemergence): 30
- Corn plant response rating (corn; [4]): 40
- Ducksalad plant response rating (ducksalad): 80
- Barnyardgrass plant response rating (barnyardgrass; [2]): 10
- Plant response rating, Barnyardgrass (barnyardgrass; [3]): 20
- Barnyardgrass plant response rating (barnyardgrass; [4]): 100
- Morningglory plant response rating (morningglory; [4]): 10
- Plant response rating, Morningglory (morningglory; [5]): 10
- Oat, Wild plant response rating (wild oat; Postemergence): 0
- Plant response rating, Oat, Wild (wild oat; Postemergence): 10
- Plant response rating, Velvetleaf (velvetleaf; [3]): 50
- Velvetleaf plant response rating (velvetleaf; [4]): 60
- Plant response rating, Velvetleaf (velvetleaf; [5]): 50
- Rice plant response rating (rice): 60
- Plant response rating, Pigweed (pigweed; [3]): 100
- Pigweed plant response rating (pigweed; [4]): 100
- Plant response rating, Pigweed (pigweed; [5]): 100

SMILES: CCn1nc(C(C)(C)C)cc1C(=O)Nc1cccc(C(=O)NC2CC2)c1 [Compound 44]
- Foxtail, Giant plant response rating (giant foxtail; [2]): 20
- Plant response rating, Foxtail, Giant (giant foxtail; [3]): 30
- Foxtail, Giant plant response rating (giant foxtail; [4]): 70
- Plant response rating, Foxtail, Giant (giant foxtail; [5]): 0
- Plant response rating, Surinam Grass (Surinam grass; [3]): 20
- Surinam Grass plant response rating (Surinam grass; [4]): 40
- Plant response rating, Surinam Grass (Surinam grass; [5]): 0
- Crabgrass, Large plant response rating (large crabgrass; [2]): 20
- Plant response rating, Crabgrass, Large (large crabgrass; [3]): 90
- Crabgrass, Large plant response rating (large crabgrass; [4]): 100
- Cocklebur plant response rating (cocklebur; [2]): 40
- Plant response rating, Cocklebur (cocklebur; [3]): 80
- Cocklebur plant response rating (cocklebur; [4]): 20
- Lambsquarters plant response rating (lambsquarters; [2]): 80
- Plant response rating, Lambsquarters (lambsquarters; [3]): 90
- Lambsquarters plant response rating (lambsquarters; [4]): 100
- Plant response rating, Lambsquarters (lambsquarters; [5]): 80
- Sedge, Umbrella plant response rating [1]: 70
- Blackgrass plant response rating (blackgrass; Postemergence): 10
- Plant response rating, Blackgrass (blackgrass; Postemergence): 20
- Corn plant response rating (corn; [2]): 20
- Plant response rating, Corn (corn; [3]): 30
- Corn plant response rating (corn; [4]): 0
- Ducksalad plant response rating (ducksalad): 70
- Barnyardgrass plant response rating (barnyardgrass; [2]): 20
- Plant response rating, Barnyardgrass (barnyardgrass; [3]): 60
- Barnyardgrass plant response rating (barnyardgrass; [4]): 100
- Morningglory plant response rating (morningglory; [2]): 30
- Plant response rating, Morningglory (morningglory; [3]): 90
- Morningglory plant response rating (morningglory; [4]): 10
- Plant response rating, Morningglory (morningglory; [5]): 0
- Oat, Wild plant response rating (wild oat; Postemergence): 20
- Plant response rating, Oat, Wild (wild oat; Postemergence): 20
- Plant response rating, Velvetleaf (velvetleaf; [3]): 80
- Velvetleaf plant response rating (velvetleaf; [4]): 100
- Plant response rating, Velvetleaf (velvetleaf; [5]): 20
- Rice plant response rating (rice): 70
- Plant response rating, Pigweed (pigweed; [3]): 100
- Pigweed plant response rating (pigweed; [4]): 100
- Plant response rating, Pigweed (pigweed; [5]): 100

SMILES: CCn1nc(C(C)(C)C)cc1C(=O)Nc1cccc(C(=O)NCCF)c1 [Compound 45]
- Foxtail, Giant plant response rating (giant foxtail; [2]): 20
- Plant response rating, Foxtail, Giant (giant foxtail; [3]): 30
- Foxtail, Giant plant response rating (giant foxtail; [4]): 100
- Plant response rating, Foxtail, Giant (giant foxtail; [5]): 10
- Plant response rating, Surinam Grass (Surinam grass; [3]): 30
- Surinam Grass plant response rating (Surinam grass; [4]): 50
- Plant response rating, Surinam Grass (Surinam grass; [5]): 20
- Crabgrass, Large plant response rating (large crabgrass; [2]): 30
- Plant response rating, Crabgrass, Large (large crabgrass; [3]): 30
- Crabgrass, Large plant response rating (large crabgrass; [4]): 90
- Cocklebur plant response rating (cocklebur; [2]): 20
- Plant response rating, Cocklebur (cocklebur; [3]): 80
- Cocklebur plant response rating (cocklebur; [4]): 80
- Lambsquarters plant response rating (lambsquarters; [2]): 80
- Plant response rating, Lambsquarters (lambsquarters; [3]): 90
- Lambsquarters plant response rating (lambsquarters; [4]): 100
- Plant response rating, Lambsquarters (lambsquarters; [5]): 100
- Sedge, Umbrella plant response rating [1]: 70
- Blackgrass plant response rating (blackgrass; Postemergence): 10
- Plant response rating, Blackgrass (blackgrass; Postemergence): 20
- Corn plant response rating (corn; [2]): 20
- Plant response rating, Corn (corn; [3]): 30
- Corn plant response rating (corn; [4]): 30
- Ducksalad plant response rating (ducksalad): 80
- Barnyardgrass plant response rating (barnyardgrass; [2]): 20
- Plant response rating, Barnyardgrass (barnyardgrass; [3]): 30
- Barnyardgrass plant response rating (barnyardgrass; [4]): 100
- Morningglory plant response rating (morningglory; [2]): 40
- Plant response rating, Morningglory (morningglory; [3]): 90
- Morningglory plant response rating (morningglory; [4]): 30
- Plant response rating, Morningglory (morningglory; [5]): 10
- Oat, Wild plant response rating (wild oat; Postemergence): 0
- Plant response rating, Oat, Wild (wild oat; Postemergence): 20
- Plant response rating, Velvetleaf (velvetleaf; [3]): 70
- Velvetleaf plant response rating (velvetleaf; [4]): 100
- Plant response rating, Velvetleaf (velvetleaf; [5]): 20
- Rice plant response rating (rice): 70
- Plant response rating, Pigweed (pigweed; [3]): 100
- Pigweed plant response rating (pigweed; [4]): 100
- Plant response rating, Pigweed (pigweed; [5]): 100

SMILES: CCn1nc(C(C)(C)C)cc1C(=O)Nc1cccc(C(=O)NC(C)C)c1 [Compound 51]
- Plant response rating, Foxtail, Giant (giant foxtail; [3]): 0
- Foxtail, Giant plant response rating (giant foxtail; [4]): 100
- Foxtail, Giant plant response rating (giant foxtail; [6]): 0
- Plant response rating, Foxtail, Giant (giant foxtail; [5]): 100
- Plant response rating, Surinam Grass (Surinam grass; [3]): 20
- Surinam Grass plant response rating (Surinam grass; [4]): 80
- Surinam Grass plant response rating (Surinam grass; [6]): 10
- Plant response rating, Surinam Grass (Surinam grass; [5]): 30
- Plant response rating, Crabgrass, Large (large crabgrass; [3]): 50
- Crabgrass, Large plant response rating (large crabgrass; [4]): 100
- Crabgrass, Large plant response rating (large crabgrass; [6]): 20
- Plant response rating, Crabgrass, Large (large crabgrass; [5]): 90
- Plant response rating, Cocklebur (cocklebur; [3]): 80
- Cocklebur plant response rating (cocklebur; [4]): 50
- Cocklebur plant response rating (cocklebur; [6]): 70
- Plant response rating, Cocklebur (cocklebur; [5]): 0
- Plant response rating, Lambsquarters (lambsquarters; [3]): 90
- Lambsquarters plant response rating (lambsquarters; [4]): 100
- Lambsquarters plant response rating (lambsquarters; [6]): 80
- Plant response rating, Lambsquarters (lambsquarters; [5]): 100
- Sedge, Umbrella plant response rating [1]: 80
- Plant response rating, Blackgrass (blackgrass; Postemergence): 0
- Blackgrass plant response rating (blackgrass; postemergence, visual rating): 0
- Plant response rating, Corn (corn; [3]): 0
- Corn plant response rating (corn; [4]): 50
- Corn plant response rating (corn; [6]): 0
- Plant response rating, Corn (corn; [5]): 0
- Ducksalad plant response rating (ducksalad): 80
- Plant response rating, Barnyardgrass (barnyardgrass; [3]): 80
- Barnyardgrass plant response rating (barnyardgrass; [4]): 100
- Barnyardgrass plant response rating (barnyardgrass; [6]): 60
- Plant response rating, Barnyardgrass (barnyardgrass; [5]): 80
- Plant response rating, Morningglory (morningglory; [3]): 0
- Morningglory plant response rating (morningglory; [4]): 0
- Morningglory plant response rating (morningglory; [6]): 0
- Plant response rating, Morningglory (morningglory; [5]): 0
- Plant response rating, Oat, Wild (wild oat; Postemergence): 10
- Oat, Wild plant response rating (wild oat; postemergence, visual rating): 0
- Plant response rating, Velvetleaf (velvetleaf; [3]): 70
- Velvetleaf plant response rating (velvetleaf; [4]): 100
- Velvetleaf plant response rating (velvetleaf; [6]): 60
- Plant response rating, Velvetleaf (velvetleaf; [5]): 50
- Rice plant response rating (rice): 70
- Plant response rating, Pigweed (pigweed; [3]): 100
- Pigweed plant response rating (pigweed; [4]): 100
- Pigweed plant response rating (pigweed; [6]): 80
- Plant response rating, Pigweed (pigweed; [5]): 100
